Test results: PubChem BioAssay AID464 (The Scripps Research Institute Molecular Screening Center, 2006)
Calls of active or inactive are those of the source.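 How the source made its calls: active means Compounds that kill half the cells at a concentration of 5 micromolar or below, from the fitted or estimated CC50; inactive means CC50 above 5 micromolar.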

The compounds below were run on Jurkat E6.1 viability, ATP luminescence, 48 h (assay: viability loss in Jurkat T cells – cell-based, ATP luminescence, 48 h, 60K MLSMR, cytotoxicity control, dose response (AID 464)).

Compound | CC50
CC(C)Cc1cc(C(=O)Nc2cc(Br)ccc2O)no1 | > 40000 nM (inactive)
Cc1[nH]c2c(C(F)(F)F)cccc2c1CCN | 10400 nM (inactive)
CCOC(=O)c1[nH]c2c(c1C)C(=O)CC(c1ccc(F)cc1)C2 (centres undefined) | 708 nM
CN(C)c1nc(N)nc(CSc2nnnn2-c2cccc3ccccc23)n1 | 6970 nM (inactive)
C=CCN1C(=Nc2cccnc2)SCC1(O)c1ccc(C)cc1 (centres undefined) | 17900 nM (inactive)
CCCN1C(=O)c2ccccc2NC1c1ccc(OC)cc1O (centres undefined) | > 40000 nM (inactive)
COc1ccccc1NC(=O)N(Cc1ccco1)Cc1cc2ccc(C)c(C)c2[nH]c1=O | 1810 nM
CC1CC(C)CN(S(=O)(=O)c2ccc(C(=O)NCCCn3ccnc3)cc2)C1 (centres undefined) | 1080 nM
c1ccc(CNc2ncnc3ccccc23)cc1 | 4680 nM
Cn1cc(/C=N/n2cnc3scc(-c4ccc(Cl)cc4)c3c2=O)c2ccccc21 | 373 nM
Oc1ccc(-c2nc(-c3ccc(O)c(O)c3)cs2)cc1 | 167 nM
COc1ccc(NS(=O)(=O)c2cc(OC)ccc2NC(=O)c2cc(C)oc2C)cc1 | 2250 nM
CCOc1ccccc1C(=O)N1CCN(c2cccc(Cl)c2)CC1 | 95 nM
COC(=O)c1cc2ccsc2n1CC(=O)Nc1cc(Cl)ccc1OC | > 4400 nM (inactive)
O=C(NCc1cccs1)c1noc2c1CCCC2 | 7480 nM (inactive)
Cc1cc(C)cc(NC2=NC3(CCCCC3)N=C(N)N2)c1 | 4970 nM
Cc1cc(C(=O)OCC(=O)NCc2ccco2)c(C)n1-c1ccccc1 | 2680 nM
O=C(NCCSc1c[nH]c2ccccc12)c1ccc(Br)o1 | > 40000 nM (inactive)
O=C(c1ccc(F)cc1)C(CN1CCOCC1)c1ccccc1 (centres undefined) | 5530 nM (inactive)
COc1ccc2nc(NC(=O)c3cccc(OCc4c(C)noc4C)c3)sc2c1 | 1600 nM
CCN(CC)S(=O)(=O)c1cccc(C(=O)Nc2nc3cc4c(cc3s2)OCCO4)c1 | 12800 nM (inactive)
CN(C)S(=O)(=O)c1ccc(N2CCN(S(=O)(=O)c3ccc(F)cc3)CC2)c(Cl)c1 | 16100 nM (inactive)
Cc1nnc(NC(=O)CSc2nccn2-c2cccc(C)c2C)s1 | 2040 nM
COc1cc(C2=NOC(C(=O)NCc3ccco3)C2)cc(OC)c1OC (centres undefined) | 2210 nM
CCOC(=O)c1ccc(NC(=O)c2ccc(CN3CCOCC3)cc2)cc1 | 5130 nM (inactive)
c1ccc(/N=C2\N=C(Nc3ccccn3)c3ccccc32)nc1 | 1120 nM
CCCCOc1ncnc2c1[nH]c1ccccc12 | 5710 nM (inactive)

Compound | CC50
O=C(CCNc1ccc(F)c(Cl)c1)c1ccco1 | > 13000 nM (inactive)
N#CCCn1cc(/C=N/O)c(-c2ccc(-c3ccccc3)cc2)n1 | 11600 nM (inactive)
Cc1ccc(OCCN2CCN(C(=O)CCC(=O)Nc3nnc(C(C)C)s3)CC2)cc1 | 5080 nM (inactive)
Cc1cc2c(N=O)c(NO)ccc2[nH]1 | 1970 nM
COc1cc(C2Nc3ccc4ncccc4c3C3=C2C(=O)CCC3)cc(OC)c1O (centres undefined) | 6150 nM (inactive)
COc1ccc(OC)c(C(C)NC(=O)c2ccco2)c1 (centres undefined) | 6240 nM (inactive)
C=CCOC(=O)c1[nH]c2c(c1C)C(=O)CC(c1ccco1)C2 (centres undefined) | 196 nM
Cc1ccc(C(=O)CCNc2ccc(F)c(Cl)c2)o1 | 6260 nM (inactive)
COc1ccc(OC)c(C2CC(=O)c3c([nH]c(C(=O)OC(C)C)c3C)C2)c1 (centres undefined) | 1080 nM
COc1ccc(Cl)cc1S(=O)(=O)n1cnc2ccccc21 | > 40000 nM (inactive)
CCn1nc(-c2cccs2)nc2c(=O)n(C)c(=O)nc1-2 | > 40000 nM (inactive)
Cc1ccc(S(=O)(=O)Nc2cccc3ncccc23)s1 | 10300 nM (inactive)
COc1ccc(Nc2nc(N3CCCC3)nc3ccccc23)c(OC)c1 | 21900 nM (inactive)
Cc1cc(C)nc(NC(=O)Nc2ccccc2C(F)(F)F)n1 | > 4400 nM (inactive)
N#CC(C#N)=c1ccc2c(c1)NC1(CCCCC1)N=2 | 8080 nM (inactive)
CCOC(=O)N1CCN(CC(=O)Nc2c(C(=O)OC)[nH]c3ccc(Cl)cc23)CC1 | > 40000 nM (inactive)
COc1ccc(-c2n[nH]c(C)c2-c2ccc(OC)c(OC)c2)c(O)c1 | > 4400 nM (inactive)
Cc1cccc(N2CCN(C(=O)c3ccc(Cl)c(S(=O)(=O)NCc4ccco4)c3)CC2)c1C | 9800 nM (inactive)
Cn1c(=O)n(C)c2cc(NS(=O)(=O)c3ccc4c(c3)CCCC4)ccc21 | 8180 nM (inactive)
Brc1ccc(C2=Nn3c(nnc3-c3n[nH]c4c3CCC4)SC2)cc1 | 313 nM
CCOC(=O)C(C)Oc1cccc2c(=O)n(CC(=O)NCc3ccco3)ccc12 (centres undefined) | 1100 nM
COC(=O)c1ccc(NC(=O)c2ccc(N(C)S(C)(=O)=O)cc2)cc1 | 11900 nM (inactive)
Cc1noc(C)c1CSc1nc2[nH]ncc2c(=O)n1-c1ccccc1 | 188 nM
O=c1c2[nH]c3ccc(F)cc3c2ncn1CCCn1ccnc1 | 17100 nM (inactive)
O=C(N1CCN(c2ccccn2)CC1)N1c2ccccc2Sc2ccccc21 | 669 nM
Fc1ccc(Br)cc1C1C=C(c2cccnc2)Nc2ncnn21 (centres undefined) | 8760 nM (inactive)
COc1ccc(C)c(Cn2c(-c3nonc3N)nc3ccccc32)c1 | 1970 nM
